Here are results for four molecules from patent publication US5624894A, “Brain-enhanced delivery of neuroactive peptides by sequential metabolism” (University of Florida, priority 1995, dated 1997).

Where “and” joins values, the source holds several entries; their conditions need not be identical. Equal entries are not always repeated. Square brackets hold non-standard residues; d marks the D form. Peptide text beside a SMILES is read from it. * marks the point of attachment. O(cholesteryl) = CC(C)CCC[C@@H](C)[C@H]1CC[C@H]2[C@@H]3CC=C4C[C@@H](O*)CC[C@]4(C)[C@H]3CC[C@]12C; Nicotinoyl(1-Me-1,4-dihydro) = CN1C=CCC(C(=O)*)=C1

One data set concerns Swiss Webster mice. The data set can be described thus: Methohexital (barbiturate)-induced sleeping time in mice after i.v. injection. The format is in vivo. As to conditions: Table 1 experiment, CDS 30 mg/kg i.v., mice. An excerpt: Two representative chemical delivery systems (CDS's) of the invention for the TRH analog [Leu^2 ]-TRH, i.e., compound (8) of Scheme I/EXAMPLE 8, which has an alanine spacer, and compound (12) of Scheme II/Example 12, which has an alanine-alanine spacer, were studied for their effects on the barbiturate-induced sleeping time in mice. TRH is known to antagonize the reduction in cholinergic activity induced by barbiturates. Thus, the activational effects of the CDS's for TRH analogs on cholinergic neurons can be measured by quantitating the antagonism of pentobarbital-induced sleeping and barbiturate-induced reduction in cholinergic neuronal activity.
Swiss Webster mice weighing 30±2 g were used. The compounds were dissolved in a vehicle consisting of DMSO, ethanol and 50% (w/w) 2-hydroxypropyl-β-cyclodextrin at a ratio of 1:2:1 (15 mg/ml). CDS's at a dose of 30 mg/kg were injected in the animals through the tail vein. Vehicle only and an equimolar dose of TRH and [Leu^2 ]-TRH, 10 mg/kg, were also administered to compare CNS activities. Ten minutes after i.v. injection of the compound, each animal received an intraperitoneal injection of sodium methohexital solution (45 mg/ml) at a dose of 90 mg/kg. The sleeping time was recorded as the time elapsed from the onset of loss of the […] until the reflex was regained. Each compound and the vehicle control were tested on 5-11 animals. The statistical analysis was performed using the Student's t test.

For the next data set, the system named is Sprague-Dawley rats. As to the kind of experiment: Rat tail flick test (analgesia) after i.v. administration. The format is in vivo. More on the design: Area under the latency change vs. time curve, AUC0-240 min: unit not given here. As to conditions: for Tail flick latency period / Maximum tail flick latency: cutoff 60 s; for Tail flick latency period / Maximum tail flick latency / Area under the latency change vs. time curve, AUC0-240 min: mean ± S.E.; for Number of Animals with maximum tail flick latency >60 seconds: cutoff latency 60 seconds; for analgesic effect in tail flick test (in words): i.v., compared to control. The method, then: Sprague-Dawley rats weighing 200-250 g were used. Drugs were dissolved in the vehicle consisting of DMSO, ethanol and 50% (w/w) 2-hydroxypropyl-β-cyclodextrin at a ratio of 1:2:1. A-CDS at a dose of 5 or 10 mg/2 ml/kg was injected in the animals through the tail vein. Vehicle only, or an equimolar dose (5 mg/kg) of DADLE (equimolar to 10 mg/kg of A-CDS) was also administered to compare the pharmacological activities. Tail flick latency, an index of spinal cord mediated analgesia, was measured before (control) and at 5 minutes, 15 minutes, 30 minutes, 1 hour, 2 hours, 3 hours, 4 hours, 5 hours and 6 hours after drug administration. The instrument used was a model 33 tail flick analgesia meter (lite, Inc., Landing, N.J.) set with the beam dial at 90 and the sensitivity at 8. Time between presentation of a focused beam of light and the reflexive removal of the tail from the stimulus was defined as the tail flick latency period, and the tail flick latency difference between each time point and control was defined as the change in tail flick latency. In the absence of response, a cut-off period of 1 minute was used. Each drug at each dose was tested in ten animals. Results are presented in Tables 5-8 below and in FIGS. 3-5.
Another representative chemical delivery system (AA-CDS) of the invention for the enkephalin analog DADLE, namely compound (69) of EXAMPLE 69, which has an alanine-alanine spacer, was studied in the same rat tail flick test procedure described above to determine its analgesic effects compared to DADLE itself. AA-CDS was tested at a dose of 10 mg/2 ml/kg, which is equimolar to 5 mg/kg of DADLE, and compared with vehicle and 5mg/kg of DADLE exactly as described above. Each dose was tested in ten animals.

The mark [1] stands for this setting: methohexital 90 mg/kg i.p. 10 min later.
The mark [2] stands for this setting: 5 mg/kg i.v., 0 min (prior to drug administration).
Setting [3] is: 10 mg/kg i.v., 0 min (prior to drug administration).

For `CC(C)CCC[C@@H](C)[C@H]1CC[C@H]2[C@@H]3CC=C4C[C@@H](OC(=O)CNC(=O)[C@@H]5CCCN5C(=O)[C@H](CC(C)C)NC(=O)[C@H](CCC(N)=O)NC(=O)[C@H](C)NC(=O)C5=CN(C)C=CC5)CC[C@]4(C)[C@H]3CC[C@]12C` [Compound (8), 1.4-Dihydrotrigonellyl-Ala-Gln-Leu-Pro-Gly-Cholesteryl Ester] ({Nicotinoyl(1-Me-1,4-dihydro)}-AQLPG-{O(cholesteryl)}), in the data set with Swiss Webster mice (setting [1]), the “methohexital induced sleeping time, individual animals” value was 18.23 min and 15.33 min and 11.90 min and 17.27 min and 46.07 min and 18.58 min and 15.73 min and 34.43 min and 16.15 min; the “methohexital induced sleeping time, mean” value was determined as 21.52 min. For the same molecule, in the data set with Swiss Webster mice, the “No. of Death” value came to 2.
With `CC(C)CCC[C@@H](C)[C@H]1CC[C@H]2[C@@H]3CC=C4C[C@@H](OC(=O)[C@@H](CC(C)C)NC(=O)[C@H](Cc5ccccc5)NC(=O)CNC(=O)[C@@H](C)NC(=O)[C@H](Cc5ccc(O)cc5)NC(=O)[C@H](C)NC(=O)C5=CN(C)C=CC5)CC[C@]4(C)[C@H]3CC[C@]12C` [Compound (64), 1,4-Dihydrotrigonellyl-Ala-Tyr-D-Ala-Gly-Phe-D-Leu-Cholesteryl Ester] ({Nicotinoyl(1-Me-1,4-dihydro)}-AY[dA]GF[dL]-{O(cholesteryl)}), the entries for the “Number of Animals with maximum tail flick latency 20-40 seconds” value with Sprague-Dawley rats (5 mg/kg i.v.) and in the data set with Sprague-Dawley rats (10 mg/kg i.v.) were 2 and 1, respectively. The “Number of Animals with maximum tail flick latency 40-60 seconds” value with Sprague-Dawley rats (5 mg/kg i.v.) is reported as 2; in the data set with Sprague-Dawley rats (10 mg/kg i.v.) it was 3. In addition, the “Number of Animals with maximum tail flick latency <20 seconds” value is given as 4 with Sprague-Dawley rats (5 mg/kg i.v.) and 0 with Sprague-Dawley rats (10 mg/kg i.v.). Moreover, the “Tail flick latency period” value is 7.24 ± 0.58 s in the data set with Sprague-Dawley rats (setting [2]); 25.95 ± 5.64 s with Sprague-Dawley rats (5 mg/kg i.v., 5 min); 20.63 ± 5.40 s in the data set with Sprague-Dawley rats (5 mg/kg i.v., 15 min); 14.22 ± 2.22 s in the data set with Sprague-Dawley rats (5 mg/kg i.v., 30 min); 13.00 ± 1.97 s in the data set on Sprague-Dawley rats (5 mg/kg i.v., 60 min); 18.37 ± 5.10 s in the data set with Sprague-Dawley rats (5 mg/kg i.v., 120 min). The “Tail flick latency period” value in the data set with Sprague-Dawley rats (5 mg/kg i.v., 180 min) came to 16.63 ± 2.02 s; with Sprague-Dawley rats (5 mg/kg i.v., 240 min), 20.28 ± 5.58 s; in the data set with Sprague-Dawley rats (5 mg/kg i.v., 300 min) it was 17.84 ± 3.42 s; in the data set with Sprague-Dawley rats (setting [3]) it was 9.21 ± 0.53 s; with Sprague-Dawley rats (10 mg/kg i.v., 5 min) it was 49.67 ± 4.67 s; in the data set on Sprague-Dawley rats (10 mg/kg i.v., 15 min) it was 40.71 ± 7.00 s. The “Tail flick latency period” value was 36.03 ± 6.34 s in the data set on Sprague-Dawley rats (10 mg/kg i.v., 30 min); 32.59 ± 6.63 s with Sprague-Dawley rats (10 mg/kg i.v., 60 min); 26.28 ± 4.56 s in the data set on Sprague-Dawley rats (10 mg/kg i.v., 120 min); 28.50 ± 4.40 s with Sprague-Dawley rats (10 mg/kg i.v., 180 min); 28.30 ± 4.68 s in the data set with Sprague-Dawley rats (10 mg/kg i.v., 240 min); 30.15 ± 3.81 s with Sprague-Dawley rats (10 mg/kg i.v., 300 min). The “Maximum tail flick latency” value stood at 33.05 ± 5.99 s in the data set on Sprague-Dawley rats (5 mg/kg i.v.) and 51.94 ± 3.83 s with Sprague-Dawley rats (10 mg/kg i.v.). Moreover, the “Number of Animals with maximum tail flick latency >60 seconds” value is 2 with Sprague-Dawley rats (5 mg/kg i.v.) and 6 in the data set on Sprague-Dawley rats (10 mg/kg i.v.). For the same molecule, the “Area under the latency change vs. time curve, AUC0-240 min” value came out at 2528.70 ± 663.78 in the data set with Sprague-Dawley rats (5 mg/kg i.v.) and 4897.80 ± 1011.63 in the data set on Sprague-Dawley rats (10 mg/kg i.v.). Also, the “analgesic effect in tail flick test (in words)” value with Sprague-Dawley rats is “significant and prolonged increase in the latency of the tail-flick response”.
Take `CC(C)CCC[C@@H](C)[C@H]1CC[C@H]2[C@@H]3CC=C4C[C@@H](OC(=O)[C@@H](CC(C)C)NC(=O)[C@H](Cc5ccccc5)NC(=O)CNC(=O)[C@@H](C)NC(=O)[C@H](Cc5ccc(O)cc5)NC(=O)[C@H](C)NC(=O)[C@H](C)NC(=O)C5=CN(C)C=CC5)CC[C@]4(C)[C@H]3CC[C@]12C` [Compound (69), 1,4Dihydrotrigonellyl-Ala-Ala-Tyr-D-Ala-Gly-Phe-D-Leu-Cholesteryl Ester] ({Nicotinoyl(1-Me-1,4-dihydro)}-AAY[dA]GF[dL]-{O(cholesteryl)}): the “Number of Animals with maximum tail flick latency 20-40 seconds” value in the data set with Sprague-Dawley rats (10 mg/kg i.v.) is 2. Also, the “Number of Animals with maximum tail flick latency 40-60 seconds” value in the data set with Sprague-Dawley rats (10 mg/kg i.v.) was found to be 2. The “Number of Animals with maximum tail flick latency <20 seconds” value in the data set on Sprague-Dawley rats (10 mg/kg i.v.) is listed as 3. For the same molecule, the “Tail flick latency period” value in the data set with Sprague-Dawley rats (setting [3]) was 8.47 ± 0.76 s; in the data set on Sprague-Dawley rats (10 mg/kg i.v., 5 min), 29.78 ± 5.99 s; in the data set with Sprague-Dawley rats (10 mg/kg i.v., 15 min), 20.24 ± 5.07 s; in the data set with Sprague-Dawley rats (10 mg/kg i.v., 30 min), 20.41 ± 5.42 s; in the data set with Sprague-Dawley rats (10 mg/kg i.v., 60 min) it was 13.77 ± 2.01 s; in the data set with Sprague-Dawley rats (10 mg/kg i.v., 120 min) it was 11.81 ± 0.99 s. The “Tail flick latency period” value with Sprague-Dawley rats (10 mg/kg i.v., 180 min) was found to be 15.94 ± 1.89 s; with Sprague-Dawley rats (10 mg/kg i.v., 240 min) it was 13.99 ± 0.95 s; with Sprague-Dawley rats (10 mg/kg i.v., 300 min) it was 18.43 ± 4.52 s. Moreover, in the data set on Sprague-Dawley rats (10 mg/kg i.v.), the “Maximum tail flick latency” value stood at 34.27 ± 6.20 s. Moreover, the “Number of Animals with maximum tail flick latency >60 seconds” value with Sprague-Dawley rats (10 mg/kg i.v.) came to 2. Besides, in the data set with Sprague-Dawley rats (10 mg/kg i.v.), the “Area under the latency change vs. time curve, AUC0-240 min” value was 1639.67 ± 266.61. The “analgesic effect in tail flick test (in words)” value with Sprague-Dawley rats is given as “produced a significant analgesic effect”.
Consider `CC(C)C[C@@H](NC(=O)[C@H](Cc1ccccc1)NC(=O)CNC(=O)[C@@H](C)NC(=O)[C@@H](N)Cc1ccc(O)cc1)C(=O)O` [DADLE, H-Tyr-D-Ala-Gly-Phe-D-Leu-OH, reference compound], for which the “Number of Animals with maximum tail flick latency 20-40 seconds” value in the data set on Sprague-Dawley rats (5 mg/kg i.v.) is listed as 3. Further, the “Number of Animals with maximum tail flick latency 40-60 seconds” value in the data set on Sprague-Dawley rats (5 mg/kg i.v.) was found to be 0. Besides, the “Number of Animals with maximum tail flick latency <20 seconds” value in the data set on Sprague-Dawley rats (5 mg/kg i.v.) was found to be 7. Moreover, the “Tail flick latency period” value with Sprague-Dawley rats (setting [2]) was 7.97 ± 0.60 s; in the data set on Sprague-Dawley rats (5 mg/kg i.v., 5 min) it was 12.15 ± 1.53 s; in the data set on Sprague-Dawley rats (5 mg/kg i.v., 15 min), 12.67 ± 1.18 s; with Sprague-Dawley rats (5 mg/kg i.v., 30 min), 12.66 ± 1.70 s; with Sprague-Dawley rats (5 mg/kg i.v., 60 min), 15.75 ± 3.03 s; in the data set with Sprague-Dawley rats (5 mg/kg i.v., 120 min) it was 10.11 ± 1.29 s. Besides, the “Tail flick latency period” value in the data set with Sprague-Dawley rats (5 mg/kg i.v., 180 min) worked out at 10.94 ± 1.65 s; in the data set on Sprague-Dawley rats (5 mg/kg i.v., 240 min) it was 10.64 ± 1.68 s; with Sprague-Dawley rats (5 mg/kg i.v., 300 min), 10.02 ± 1.08 s. Moreover, the “Maximum tail flick latency” value in the data set with Sprague-Dawley rats (5 mg/kg i.v.) was 19.68 ± 2.42 s. Besides, in the data set with Sprague-Dawley rats (5 mg/kg i.v.), the “Number of Animals with maximum tail flick latency >60 seconds” value turned out to be 0. In addition, the “Area under the latency change vs. time curve, AUC0-240 min” value with Sprague-Dawley rats (5 mg/kg i.v.) was found to be 775.58 ± 273.20.
